US20120095019A1 (priority 2010, published 2012)
Where “and” joins values, the source holds several entries; their conditions need not be identical. Identical values can stand only once. Entries after “also recorded” stand apart in the source; their conditions may differ.

Columns and labels:
[1] = 2-way crossover study of single-dose betrixaban alone and following 5 days of ketoconazole in healthy subjects (plasma/urine PK, safety); type: in vivo, human; conditions: for Cmax: ketoconazole Cmax
Excerpt: Blood and urine samples were obtained at specific time intervals after dosing for pharmacokinetic evaluations.
For each subject, the total duration of the study was up to 11 weeks (4 weeks predose, 1 week in the study unit on 2 occasions separated by a 12- to 14-day washout period, and 3 weeks after the last dose until the termination visit).
Safety was monitored by adverse event monitoring, clinical laboratory testing (hematology, serum chemistry, and urinalysis), vital sign measurements (oral temperature, respiratory rate, pulse rate, and systolic and diastolic blood pressure), electrocardiograms, and physical examinations.

[2] = 3-period crossover study of betrixaban and digoxin alone and in combination for 7 days in healthy subjects; type: in vivo, human
Excerpt: For each period, subjects reported to the clinical research unit on the day prior to Day 1 and remained there until Day 8 (at least until the last blood sample collection). The total duration of the study for each subject was 14 weeks: up to 4 weeks predose, approximately 1 week in the study unit on 3 occasions (with each treatment period separated by an approximate 2-week washout [i.e., 12 to 14 days]), and up to 3 weeks after the last dose until the Termination Visit. Serial blood samples and interval urine collections were obtained over the last dosing interval (Day 7 to 8) during each study period. Routine safety laboratory data was obtained at baseline during and after drug administration; additional safety laboratory and clinical data were collected.
All doses were taken under fasting conditions (no food starting from the midnight before dosing and continuing until 2 hours postdose).
Safety assessments included electrocardiogram (ECG) intervals, vital signs, laboratory parameters, and adverse events (AEs).
Mean and individual concentration-versus-time curves were plotted. […]
The 90% confidence intervals (CIs) for the difference in least squares means (test-reference, where test=drugs in combination and reference=drugs alone) was calculated for each parameter. […]

| Structure (SMILES) | ketoconazole CL/F, mean (SD) ([1]; Day 1) | ketoconazole trough concentration, least squares geometric mean ([1]; Day 1 12 hours) | ketoconazole trough concentration, least squares geometric mean ([1]; Day 1 predose) | ketoconazole CL/F, mean (SD) ([1]; Day-1) | ketoconazole trough concentration, least squares geometric mean ([1]; Day-1 predose) | increased exposure of ketoconazole [Cmax and AUC(0-12)] when given with betrixaban ([1]; human, in vivo) | Tmax ([1]; human, plasma, oral) | Tmax ([1]; human, plasma, oral, 200 mg) | AUC(0-t) ([1]; human, plasma, oral, 200 mg, ketoconazole AUC(0-12), geometric LS mean, Treatment R: ketoconazole 200 mg alone) | Cmax ([1]; human, plasma, oral, 200 mg, geometric LS mean, Treatment R: ketoconazole 200 mg alone) | Cmax ([1]; human, plasma, oral, 200 mg, mean (SD), Day-1) | AUC(0-t) ([1]; human, plasma, oral, 200 mg, ketoconazole plasma AUC(0-12), mean (SD), Day-1) | concentration at 12 h ([1]; human, plasma, oral, 200 mg, Day-1 12 hours) | AUC(0-t) ([1]; human, plasma, oral, ketoconazole AUC(0-12), geometric LS mean, Treatment T: ketoconazole 200 mg co-administered with 40-mg betrixaban) | Cmax ([1]; human, plasma, oral, geometric LS mean, Treatment T: ketoconazole 200 mg co-administered with 40-mg betrixaban) | Cmax ([1]; human, plasma, oral, mean (SD), Day 1 (day of betrixaban administration)) | effect of co-administration of betrixaban on digoxin PK ([2]; 7 days) | Tmax ([2]; human, plasma, oral, digoxin median tmax, second value of pair (digoxin alone by order)) |
| --- | --- | --- | --- | --- | --- | --- | --- | --- | --- | --- | --- | --- | --- | --- | --- | --- | --- | --- |
| CC(=O)N1CCN(c2ccc(OCC3COC(Cn4ccnc4)(c4ccc(Cl)cc4Cl)O3)cc2)CC1 (stereo not drawn) [ketoconazole] | 5.717 (2.373) L/h | 769 ng/mL | 1030 ng/mL | 7.954 (7.110) L/h | 1250 ng/mL | 21-22% and ~20% | 2 h | 2 h | 30900 ng·h/mL | 5260 ng/mL | 5900 ng/mL | 35300 ng·h/mL | 697 ng/mL | 37300 ng·h/mL | 6420 ng/mL | 6620 ng/mL | – | – |
| C[C@H]1O[C@@H](O[C@H]2[C@@H](O)C[C@H](O[C@H]3[C@@H](O)C[C@H](O[C@H]4CC[C@@]5(C)[C@H](CC[C@@H]6[C@@H]5C[C@@H](O)[C@]5(C)[C@@H](C7=CC(=O)OC7)CC[C@]65O)C4)O[C@@H]3C)O[C@@H]2C)C[C@H](O)[C@@H]1O [digoxin] | – | – | – | – | – | – | – | – | – | – | – | – | – | – | – | – | no impact; also recorded: no effect | 1.01 h |
